Results: PubChem BioAssay AID2060904 (Molecular Pharmacology Branch, DTP, NCI, 2025)
One block for each molecule: values may come before it.

Tested on: 349418-098-R-PDC complex spheroid viability
Assay: Anticancer human tumor 349418-098-R-PDC patient-derived lung adenocarcinoma cell line growth inhibition [RAS]
Settings: for IC50: curve of first compound; for viability, T/C: stronger effect = lower value
Procedure, shortened: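 Tumour cells grown as complex spheroids with HUVEC endothelial cells and mesenchymal stem cells, treated with RAS pathway inhibitor combinations. Each agent spans half-log steps from near clinical Cmax, or 10 microM where Cmax is unknown.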

[1] = second compound 0.000949 µM, first compound 0.0316 µM
[2] = second compound 0.000949 µM, first compound 0.1 µM
[3] = second compound 0.000949 µM, first compound 0.316 µM
[4] = second compound 0.000949 µM, first compound 1 µM
[5] = second compound 0.000949 µM, first compound 3.16 µM
[6] = second compound 0.000949 µM, first compound 10 µM
[7] = second compound 0.003 µM, first compound 0.0316 µM
[8] = second compound 0.003 µM, first compound 0.1 µM
[9] = second compound 0.003 µM, first compound 0.316 µM
[10] = second compound 0.003 µM, first compound 1 µM
[11] = second compound 0.003 µM, first compound 3.16 µM
[12] = second compound 0.003 µM, first compound 10 µM
[13] = second compound 0.00949 µM, first compound 0.0316 µM
[14] = second compound 0.00949 µM, first compound 0.1 µM
[15] = second compound 0.00949 µM, first compound 0.316 µM
[16] = second compound 0.00949 µM, first compound 1 µM
[17] = second compound 0.00949 µM, first compound 3.16 µM
[18] = second compound 0.00949 µM, first compound 10 µM
[19] = second compound 0.03 µM, first compound 0.0316 µM
[20] = second compound 0.03 µM, first compound 0.1 µM
[21] = second compound 0.03 µM, first compound 0.316 µM
[22] = second compound 0.03 µM, first compound 1 µM
[23] = second compound 0.03 µM, first compound 3.16 µM
[24] = second compound 0.03 µM, first compound 10 µM
[25] = second compound 0.0949 µM, first compound 0.0316 µM
[26] = second compound 0.0949 µM, first compound 0.1 µM
[27] = second compound 0.0949 µM, first compound 0.316 µM
[28] = second compound 0.0949 µM, first compound 1 µM
[29] = second compound 0.0949 µM, first compound 3.16 µM
[30] = second compound 0.0949 µM, first compound 10 µM
[31] = second compound 0.3 µM, first compound 0.0316 µM
[32] = second compound 0.3 µM, first compound 0.1 µM
[33] = second compound 0.3 µM, first compound 0.316 µM
[34] = second compound 0.3 µM, first compound 1 µM
[35] = second compound 0.3 µM, first compound 3.16 µM
[36] = second compound 0.3 µM, first compound 10 µM
[37] = second compound 0.000949 µM, first compound 0.00316 µM
[38] = second compound 0.000949 µM, first compound 0.01 µM
[39] = second compound 0.003 µM, first compound 0.00316 µM
[40] = second compound 0.003 µM, first compound 0.01 µM
[41] = second compound 0.00949 µM, first compound 0.00316 µM
[42] = second compound 0.00949 µM, first compound 0.01 µM
[43] = second compound 0.03 µM, first compound 0.00316 µM
[44] = second compound 0.03 µM, first compound 0.01 µM
[45] = second compound 0.0949 µM, first compound 0.00316 µM
[46] = second compound 0.0949 µM, first compound 0.01 µM
[47] = second compound 0.3 µM, first compound 0.00316 µM
[48] = second compound 0.3 µM, first compound 0.01 µM
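Further: spheroids exposed to compound for seven days before viability readout.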

IC50 (second compound 0.000949 µM): 0.603 µM | IC50 (second compound 0.003 µM): 0.357 µM | IC50 (second compound 0.00949 µM): 0.501 µM | IC50 (second compound 0.03 µM): 0.507 µM | IC50 (second compound 0.0949 µM): 0.523 µM | IC50 (second compound 0.3 µM): 0.352 µM
SMILES: CC(C)NCC(C(=O)N1CCN(c2ncnc3c2C(C)CC3O)CC1)c1ccc(Cl)cc1 (stereo not drawn) + CCn1c(-c2cccnc2C(C)OC)c2c3cc(ccc31)N1CCOC(CC(NC(=O)C(C(C)C)N(C)C(=O)C3(F)CCN(C(=O)C#CC(C)(C)N(C)C)CC3)C(=O)N3CCCC(N3)C(=O)OCC(C)(C)C2)C1
viability, T/C [1]: 83.5% | viability, T/C [2]: 88.7% | viability, T/C [3]: 76% | viability, T/C [4]: 29.1% | viability, T/C [5]: 24.2% | viability, T/C [6]: 10.7% | viability, T/C [7]: 103% | viability, T/C [8]: 60.9% | viability, T/C [9]: 51.6% | viability, T/C [10]: 48.1% | viability, T/C [11]: 18.7% | viability, T/C [12]: 10.2% | viability, T/C [13]: 101% | viability, T/C [14]: 85.7% | viability, T/C [15]: 58.9% | viability, T/C [16]: 35% | viability, T/C [17]: 19.6% | viability, T/C [18]: 8.77% | viability, T/C [19]: 97.6% | viability, T/C [20]: 86.8% | viability, T/C [21]: 56.8% | viability, T/C [22]: 33.3% | viability, T/C [23]: 28.5% | viability, T/C [24]: 8.92% | viability, T/C [25]: 83.3% | viability, T/C [26]: 75.5% | viability, T/C [27]: 62.9% | viability, T/C [28]: 32.5% | viability, T/C [29]: 24.2% | viability, T/C [30]: 8.81% | viability, T/C [31]: 94.9% | viability, T/C [32]: 76.7% | viability, T/C [33]: 46.5% | viability, T/C [34]: 34.3% | viability, T/C [35]: 27.5% | viability, T/C [36]: 11%

IC50 (second compound 0.000949 µM): 0.0013 µM | IC50 (second compound 0.003 µM): 0.0021 µM | IC50 (second compound 0.00949 µM): 0.00258 µM | IC50 (second compound 0.03 µM): 0.00286 µM | IC50 (second compound 0.0949 µM): 0.00142 µM | IC50 (second compound 0.3 µM): 0.00148 µM
SMILES: CC(C)n1nc(-c2ccc3oc(N)nc3c2)c2c(N)ncnc21 + CCn1c(-c2cccnc2C(C)OC)c2c3cc(ccc31)N1CCOC(CC(NC(=O)C(C(C)C)N(C)C(=O)C3(F)CCN(C(=O)C#CC(C)(C)N(C)C)CC3)C(=O)N3CCCC(N3)C(=O)OCC(C)(C)C2)C1
viability, T/C (second compound 0.000949 µM, first compound 0.000316 µM): 97.3% | viability, T/C (second compound 0.000949 µM, first compound 0.001 µM): 54.3% | viability, T/C [37]: 33.3% | viability, T/C [38]: 10.8% | viability, T/C [1]: 6.42% | viability, T/C [2]: 5.48% | viability, T/C (second compound 0.003 µM, first compound 0.000316 µM): 91.7% | viability, T/C (second compound 0.003 µM, first compound 0.001 µM): 70.3% | viability, T/C [39]: 39.7% | viability, T/C [40]: 12.8% | viability, T/C [7]: 6.14% | viability, T/C [8]: 5.04% | viability, T/C (second compound 0.00949 µM, first compound 0.000316 µM): 91.2% | viability, T/C (second compound 0.00949 µM, first compound 0.001 µM): 82.2% | viability, T/C [41]: 42.7% | viability, T/C [42]: 13.9% | viability, T/C [13]: 6.63% | viability, T/C [14]: 5.25% | viability, T/C (second compound 0.03 µM, first compound 0.000316 µM): 98.7% | viability, T/C (second compound 0.03 µM, first compound 0.001 µM): 81.4% | viability, T/C [43]: 47.7% | viability, T/C [44]: 16.8% | viability, T/C [19]: 6.13% | viability, T/C [20]: 5.01% | viability, T/C (second compound 0.0949 µM, first compound 0.000316 µM): 90.4% | viability, T/C (second compound 0.0949 µM, first compound 0.001 µM): 55.9% | viability, T/C [45]: 35.7% | viability, T/C [46]: 13.3% | viability, T/C [25]: 7.14% | viability, T/C [26]: 4.64% | viability, T/C (second compound 0.3 µM, first compound 0.000316 µM): 67.4% | viability, T/C (second compound 0.3 µM, first compound 0.001 µM): 64.7% | viability, T/C [47]: 22% | viability, T/C [48]: 10.9% | viability, T/C [31]: 6.85% | viability, T/C [32]: 4.69%

IC50 (second compound 0.000949 µM): 0.0364 µM | IC50 (second compound 0.003 µM): 0.0994 µM | IC50 (second compound 0.00949 µM): 0.0724 µM | IC50 (second compound 0.03 µM): 0.278 µM | IC50 (second compound 0.0949 µM): < 0.0316 µM | IC50 (second compound 0.3 µM): 0.0399 µM
SMILES: CC(Nc1ccc2c(c1)OCCn1cc(N3C(=O)OCC3C(F)F)nc1-2)C(N)=O (stereo not drawn) + CCn1c(-c2cccnc2C(C)OC)c2c3cc(ccc31)N1CCOC(CC(NC(=O)C(C(C)C)N(C)C(=O)C3(F)CCN(C(=O)C#CC(C)(C)N(C)C)CC3)C(=O)N3CCCC(N3)C(=O)OCC(C)(C)C2)C1
viability, T/C [1]: 72.9% | viability, T/C [2]: 36.7% | viability, T/C [3]: 17.7% | viability, T/C [4]: 17.2% | viability, T/C [5]: 101% | viability, T/C [6]: 16.2% | viability, T/C [7]: 80.3% | viability, T/C [8]: 56.2% | viability, T/C [9]: 30.2% | viability, T/C [10]: 19.6% | viability, T/C [11]: 99.2% | viability, T/C [12]: 12.9% | viability, T/C [13]: 73.4% | viability, T/C [14]: 43.6% | viability, T/C [15]: 25.2% | viability, T/C [16]: 14.9% | viability, T/C [17]: 94.2% | viability, T/C [18]: 11.8% | viability, T/C [19]: 67.6% | viability, T/C [20]: 43% | viability, T/C [21]: 32.2% | viability, T/C [22]: 24.3% | viability, T/C [23]: 112% | viability, T/C [24]: 14.7% | viability, T/C [25]: 55.9% | viability, T/C [26]: 44.5% | viability, T/C [27]: 25.9% | viability, T/C [28]: 17.9% | viability, T/C [29]: 98.1% | viability, T/C [30]: 10.4% | viability, T/C [31]: 53.7% | viability, T/C [32]: 37.8% | viability, T/C [33]: 21.5% | viability, T/C [34]: 19% | viability, T/C [35]: 65% | viability, T/C [36]: 14.5%

IC50 (second compound 0.000949 µM): < 0.00316 µM | IC50 (second compound 0.003 µM): < 0.00316 µM | IC50 (second compound 0.00949 µM): < 0.00316 µM | IC50 (second compound 0.03 µM): < 0.00316 µM | IC50 (second compound 0.0949 µM): < 0.00316 µM | IC50 (second compound 0.3 µM): < 0.00316 µM
SMILES: O=C(c1ccc(F)c(F)c1Nc1ccc(I)cc1F)N1CC(O)([C@@H]2CCCCN2)C1 + CCn1c(-c2cccnc2C(C)OC)c2c3cc(ccc31)N1CCOC(CC(NC(=O)C(C(C)C)N(C)C(=O)C3(F)CCN(C(=O)C#CC(C)(C)N(C)C)CC3)C(=O)N3CCCC(N3)C(=O)OCC(C)(C)C2)C1
viability, T/C [37]: 26.5% | viability, T/C [38]: 22.8% | viability, T/C [1]: 15.6% | viability, T/C [2]: 12.7% | viability, T/C [3]: 7.76% | viability, T/C [4]: 5.98% | viability, T/C [39]: 29.4% | viability, T/C [40]: 24.1% | viability, T/C [7]: 17.2% | viability, T/C [8]: 11.3% | viability, T/C [9]: 6.93% | viability, T/C [10]: 5.43% | viability, T/C [41]: 28.6% | viability, T/C [42]: 17.8% | viability, T/C [13]: 14.9% | viability, T/C [14]: 10.6% | viability, T/C [15]: 7.5% | viability, T/C [16]: 6.07% | viability, T/C [43]: 30.2% | viability, T/C [44]: 14.9% | viability, T/C [19]: 15.8% | viability, T/C [20]: 12% | viability, T/C [21]: 7.23% | viability, T/C [22]: 5.04% | viability, T/C [45]: 27.1% | viability, T/C [46]: 17.5% | viability, T/C [25]: 13.2% | viability, T/C [26]: 10.3% | viability, T/C [27]: 6.84% | viability, T/C [28]: 5.79% | viability, T/C [47]: 30.1% | viability, T/C [48]: 15.8% | viability, T/C [31]: 12.9% | viability, T/C [32]: 11.1% | viability, T/C [33]: 7.31% | viability, T/C [34]: 5.8%
